Measured values from patent publication US9242984B2, “Pyrazolyl derivatives as Syk inhibitors” (Merck Sharp & Dohme Corp., priority 2012, dated 2016).

target: T1, recombinant human Syk (GST-hSyk fusion protein) (Homo sapiens, UniProt P43405); test: Homogeneous Time-Resolved Fluorescence (HTRF) assay for the recombinant human Syk enzyme; format: biochemical; settings: 10-dose titration, 25 μM ATP; read-out: rhSYK IC50
T1 construct: purchased Carna Biosciences 08-176
Procedure, shortened: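 IC50 came from a four-parameter fit over ten doses, 10 μM to 0.508 nM, with HTRF read-out (Eu-anti-pTyr antibody, SA-APC, EDTA stop, 30 min). The enzyme, 5 pM GST-hSyk, met compound for 10 min, then phosphorylated 250 nM biotin-peptide with 25 μM ATP and 5 mM Mg for 45 min at room temperature, pH 7.5.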

Row | IC50 [nM] | Compound
1 | 6.2 | Cc1cc(Nc2nccc(C(F)F)n2)cc(-c2cnn(CC(C)(O)C(F)(F)F)c2)c1 (single isomer, unassigned) [Example 24.2, (S or R)-3-(4-(3-((4-(difluoromethyl)pyrimidin-2-yl)amino)-5-methylphenyl)-1H-pyrazol-1-yl)-1,1,1-trifluoro-2-methylpropan-2-ol]
2 | 7.4 | Cc1cc(Nc2nccc(C(F)(F)F)n2)cc(-c2cnn(C3CCCC(O)C3O)c2)c1 (single isomer, unassigned) [Example 10.1, (R or S) 3-[4-(3-methyl-5-{[4-(trifluoromethyl)pyrimidin-2-yl]amino}phenyl)-1H-pyrazol-1-yl]cyclohexane-1,2-diol]
3 | 21.1 | Cc1cc(Nc2nccc(C(F)(F)F)n2)cc(-c2cnn(C[C@H](O)C(=O)NCCO)c2)c1 [Example 6.1, (2S)-2-hydroxy-N-(2-hydroxyethyl)-3-[4-(3-methyl-5-{[4-(trifluoromethyl)pyrimidin-2-yl]amino}phenyl)-1H-pyrazol-1-yl]propanamide]
4 | 1.1 | Cc1cc(Nc2nccc(C(F)F)n2)cc(-c2cnn(C3CC(C)(C)CC(C)(O)C3O)c2)c1 (stereo not shown) [Example 22.9, 3-[4-(3-{[4-(difluoromethyl)pyrimidin-2-yl]amino}-5-methylphenyl)-1H-pyrazol-1-yl]-1,5,5-trimethylcyclohexane-1,2-diol]
5 | 3.5 | Cc1cc(Nc2ncc(F)c(C(F)F)n2)cc(-c2cnn([C@@H]3CCC[C@@H](O)[C@H]3O)c2)c1 (single isomer, unassigned) [Example 10.11, 3-[4-(3-{[4-(difluoromethyl)-5-fluoro-pyrimidin-2-yl]amino}-5-methylphenyl)-1H-pyrazol-1-yl]cyclohexane-1,2-diol]

same assay, conditions: IC50 class; 10-dose titration, 25 μM ATP; read-out: rhSYK Activity

Row | Compound | IC50 [nM]
6 | Cc1cc(Nc2nccc(C(F)(F)F)n2)cc(-c2cnn(CC3CCO3)c2)c1 (stereo not shown) [Example 3.18, N-{3-methyl-5-[1-(oxetan-2-ylmethyl)-1H-pyrazol-4-yl]-phenyl}-4-(trifluoro-methyl)-pyrimidin-2-amine] | ≤ 100
7 | O=C1NCC(Cn2cc(-c3cccc(Nc4nccc(C(F)(F)F)n4)c3)cn2)O1 (stereo not shown) [Example 2.34, 5-{[4-(3-{[4-(trifluoromethyl)pyrimidin-2-yl]amino}phenyl)-1H-pyrazol-1-yl]methyl}-1,3-oxazolidin-2-one] | ≤ 100
8 | O=C1NCC(Cn2cc(-c3cccc(Nc4nccc(C(F)F)n4)c3)cn2)O1 (stereo not shown) [Example 2.66, 5-{[4-(3-{[4-(difluoromethyl)pyrimidin-2-yl]amino}phenyl)-1H-pyrazol-1-yl]methyl}-1,3-oxazolidin-2-one] | ≤ 100
9 | Cc1cc(Nc2nccc(C3CC3)n2)cc(-c2cnn(CCC(=O)O)c2)c1 [Example 2.40, 3-(4-{3-[(4-cyclopropylpyrimidin-2-yl)amino]-5-methylphenyl}-1H-pyrazol-1-yl)propanoic acid] | ≤ 100
10 | O=C(O)C1CCC(n2cc(-c3cc(Cl)cc(Nc4nccc(C(F)(F)F)n4)c3)cn2)CC1 (stereo not shown) [Example 1.61, 4-[4-(3-chloro-5-{[4-(trifluoromethyl)pyrimidin-2-yl]amino}phenyl)-1H-pyrazol-1-yl]cyclohexanecarboxylic acid] | ≤ 100
11 | Cc1cc(Nc2nccc(C(F)(F)F)n2)cc(-c2cnn(C[C@H](O)C(=O)NCCO)c2)c1 [Example 6.1, (2S)-2-hydroxy-N-(2-hydroxyethyl)-3-[4-(3-methyl-5-{[4-(trifluoromethyl)pyrimidin-2-yl]amino}phenyl)-1H-pyrazol-1-yl]propanamide] | ≤ 100
12 | Cc1cc(Nc2nccc(C)n2)cc(-c2cnn(C3CCC(C(=O)O)CC3)c2)c1 (stereo not shown) [Example 1.58, 4-(4-{3-methyl-5-[(4-methylpyrimidin-2-yl)amino]phenyl}-1H-pyrazol-1-yl)cyclohexanecarboxylic acid] | ≤ 100
13 | Cc1cc(Nc2nccc(C(F)F)n2)cc(-c2cnn(C(C[C@@H](C)O)[C@@H](C)O)c2)c1 (stereo in doubt) [Example 2.52, 3-[4-(3-{[4-(difluoromethyl)pyrimidin-2-yl]amino}-5-methylphenyl)-1H-pyrazol-1-yl]hexane-2,5-diol] | ≤ 100
14 | CCC(C)(O)Cn1cc(-c2cc(C)cc(Nc3nccc(C(F)F)n3)c2)cn1 (stereo not shown) [Example 3.114, 1-[4-(3-{[4-(difluoromethyl)pyrimidin-2-yl]amino}-5-methylphenyl)-1H-pyrazol-1-yl]-2-methylbutan-2-ol] | ≤ 100
15 | Cc1cc(Nc2nccc(C(F)(F)F)n2)cc(-c2cnn(CC(O)CO)c2)c1 (racemic) [Example 5.15, 3-[4-(3-methyl-5-{[4-(trifluoromethyl)-pyrimidin-2-yl]amino}-phenyl)-1H-pyrazol-1-yl]propane-1,2-diol] | ≤ 100
16 | COc1ccnc(Nc2cc(C)cc(-c3cnn(CCC(N)=O)c3)c2)n1 [Example 3.40, 3-(4-{3-[(4-methoxypyrimidin-2-yl)amino]-5-methylphenyl}-1H-pyrazol-1-yl)propanamide] | ≤ 100
17 | O=C(O)CCn1cc(-c2cccc(Nc3cc(C(F)(F)F)ccn3)n2)cn1 [Example 1.19, 3-[4-(6-{[4-(trifluoromethyl)pyridin-2-yl]amino}pyridin-2-yl)-1H-pyrazol-1-yl]propanoic acid] | ≤ 100
18 | Cc1cc(Nc2nccc(C(F)F)n2)cc(-c2cnn(C(C)C3CNC(=O)C3)c2)c1 (stereo not shown) [Example 2.67, 4-{1-[4-(3-{[4-(difluoromethyl)pyrimidin-2-yl]amino}-5-methylphenyl)-1H-pyrazol-1-yl]ethyl}pyrrolidin-2-one] | ≤ 100
19 | Cc1cc(Nc2nccc(C(F)(F)F)n2)cc(-c2cnn(CC(C)(O)C(=O)O)c2)c1 (racemic) [Example 5.6, 2-hydroxy-2-methyl-3-[4-(3-methyl-5-{[4-(trifluoro-methyl)pyrimidin-2-yl]amino}-phenyl)-1H-pyrazol-1-yl]propanoic acid] | ≤ 100
20 | Cc1cc(Nc2nccc(C(F)(F)F)n2)cc(-c2cnn(CC(O)COc3ccccc3)c2)c1 (stereo not shown) [Example 5.8, 1-[4-(3-methyl-5-{[4-(trifluoro-methyl)pyrimidin-2-yl]amino}-phenyl)-1H-pyrazol-1-yl]-3-phenoxypropan-2-ol] | 100 to 1000
21 | COc1nc(Nc2cc(C)cc(-c3cnn(CC4CNC(=O)O4)c3)c2)ncc1F (stereo not shown) [Example 2.25, 5-[(4-{3-[(5-fluoro-4-methoxypyrimidin-2-yl)amino]-5-methylphenyl}-1H-pyrazol-1-yl)methyl]-1,3-oxazolidin-2-one] | ≤ 100
22 | C[C@@](O)(CO)Cn1cc(-c2cccc(Nc3nccc(C(F)(F)F)n3)c2)cn1 [Example 2.86, (2S)-2-methyl-3-[4-(3-{[4-(trifluoromethyl)pyrimidin-2-yl]amino}phenyl)-1H-pyrazol-1-yl]propane-1,2-diol] | ≤ 100
23 | Cc1cc(Nc2nccc(C(F)F)n2)cc(-c2cnn(C(C)C3CNC(=O)C3)c2)c1 (stereo not shown) [Example 2.69, 4-{1-[4-(3-{[4-(difluoromethyl)pyrimidin-2-yl]amino}-5-methylphenyl)-1H-pyrazol-1-yl]ethyl}pyrrolidin-2-one] | ≤ 100
24 | Cc1cc(Nc2nccc(C)n2)cc(-c2cnn(CC3OC(=O)NC3(C)C)c2)c1 (stereo not shown) [Example 3.105, 4,4-dimethyl-5-[(4-{3-methyl-5-[(4-methylpyrimidin-2-yl)amino]phenyl}-1H-pyrazol-1-yl)methyl]-1,3-oxazolidin-2-one] | ≤ 100
25 | Cc1cc(Nc2nccc(C(F)(F)F)n2)cc(-c2cnn(C[C@H](O)CO)c2)c1 [Example 3.42, (2S)-3-[4-(3-methyl-5-{[4-(trifluoromethyl)pyrimidin-2-yl]amino}phenyl)-1H-pyrazol-1-yl]propane-1,2-diol] | ≤ 100
26 | Cc1cc(Nc2nccc(C(F)(F)F)n2)cc(-c2cnn(Cc3noc(C)n3)c2)c1 [Example 3.10, N-(3-methyl-5-{1-[(5-methyl-1,2,4-oxadiazol-3-yl)methyl]-1H-pyrazol-4-yl}phenyl)-4-(trifluoromethyl)-pyrimidin-2-amine] | ≤ 100
27 | Cc1cc(Nc2nccc(C(F)(F)F)n2)cc(-c2cnn(C3CCC(C(=O)O)C(C)(C)C3)c2)c1 (stereo not shown) [Example 2.59, 2,2-dimethyl-4-[4-(3-methyl-5-{[4-(trifluoromethyl)pyrimidin-2-yl]amino}phenyl)-1H-pyrazol-1-yl]cyclohexanecarboxylic acid] | ≤ 100
28 | Cc1cc(Nc2nccc(C(F)F)n2)cc(-c2cnn(C[C@@H]3CNCCO3)c2)c1 [Example 2.83, 4-(difluoromethyl)-N-(3-methyl-5-{1-[(2S)-morpholin-2-ylmethyl]-1H-pyrazol-4-yl}phenyl)pyrimidin-2-amine] | ≤ 100

The next lines start with the values.

Row | IC50 [nM] | Compound
29 | ≤ 100 | COc1nc(Nc2cc(C)cc(-c3cnn(C[C@@H](O)C(=O)O)c3)c2)ncc1Cl [Example 11.15, (2R)-3-(4-{3-[(5-chloro-4-methoxy-pyrimidin-2-yl)amino]-5-methyl-phenyl}-1H-pyrazol-1-yl)-2-hydroxy-propanoic acid]
30 | ≤ 100 | Cc1cc(Nc2nccc(C(F)F)n2)cc(-c2cnn(CC(C)(O)C(F)(F)F)c2)c1 (single isomer, unassigned) [Example 24.2, (S or R)-3-(4-(3-((4-(difluoromethyl)pyrimidin-2-yl)amino)-5-methylphenyl)-1H-pyrazol-1-yl)-1,1,1-trifluoro-2-methylpropan-2-ol]
31 | ≤ 100 | Cc1cc(Nc2nccc(C(F)(F)F)n2)cc(-c2cnn(C3CCCC(O)C3O)c2)c1 (single isomer, unassigned) [Example 10.1, (R or S) 3-[4-(3-methyl-5-{[4-(trifluoromethyl)pyrimidin-2-yl]amino}phenyl)-1H-pyrazol-1-yl]cyclohexane-1,2-diol]
32 | ≤ 100 | Cc1cc(Nc2nccc(C(F)F)n2)cc(-c2cnn(C3CC(C)(C)CC(C)(O)C3O)c2)c1 (stereo not shown) [Example 22.9, 3-[4-(3-{[4-(difluoromethyl)pyrimidin-2-yl]amino}-5-methylphenyl)-1H-pyrazol-1-yl]-1,5,5-trimethylcyclohexane-1,2-diol]
33 | ≤ 100 | Cc1cc(Nc2ncc(F)c(C(F)F)n2)cc(-c2cnn([C@@H]3CCC[C@@H](O)[C@H]3O)c2)c1 (single isomer, unassigned) [Example 10.11, 3-[4-(3-{[4-(difluoromethyl)-5-fluoro-pyrimidin-2-yl]amino}-5-methylphenyl)-1H-pyrazol-1-yl]cyclohexane-1,2-diol]
34 | ≤ 100 | Cc1cc(Nc2nccc(C(C)(F)F)n2)cc(-c2cnn(CC3OC(=O)NC3C)c2)c1 (single isomer, unassigned) [Example 23.12, 5-{[4-(3-{[4-(1,1-difluoroethyl)pyrimidin-2-yl]amino}-5-methylphenyl)-1H-pyrazol-1-yl]methyl}-4-methyl-1,3-oxazolidin-2-one]
35 | ≤ 100 | Cc1cc(Nc2nccc(C(F)(F)F)n2)cc(-c2cnn(CC3(O)CCC3)c2)c1 [Example 12.2, 1-{[4-(3-methyl-5-{[4-(trifluoro-methyl)pyrimidin-2-yl]amino}-phenyl)-1H-pyrazol-1-yl]-methyl}-cyclobutanol]
36 | ≤ 100 | Cc1cc(Nc2nccc(C(F)F)n2)cc(-c2cnn(CCNC(=O)OCCF)c2)c1 [Example 27.18, 2-fluoroethyl {2-[4-(3-{[4-(difluoromethyl)pyrimidin-2-yl]amino}-5-methylphenyl)-1H-pyrazol-1-yl]ethyl}carbamate]
37 | ≤ 100 | Cc1cc(Nc2nccc(C(F)F)n2)cc(-c2cnn(CC(C)(C)NS(=O)(=O)N3CCOCC3)c2)c1 [Example 27.6, N-{2-[4-(3-{[4-(difluoromethyl)pyrimidin-2-yl]amino}-5-methylphenyl)-1H-pyrazol-1-yl]-1,1-dimethylethyl}morpholine-4-sulfonamide]
